PubChem BioAssay AID1919007 (Molecular Pharmacology Branch, DTP, NCI, 2023)
Where “and” joins values, the source holds several entries; their conditions need not be identical. Equal entries are not always repeated.

System: A498 complex spheroids with HUVEC/MSC, growth
Assay: Anticancer human tumor A498 cell line growth inhibition [AhR];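 note: seven day exposure starting three days after spheroid seeding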;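 for viability, T/C: luminescence signal used as a surrogate for viable cells; luminescence viability scaled so 100% equals DMSO vehicle wells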
Details: for viability, T/C: stronger effect = lower value
In short: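 Agents were dosed in half-log steps down from roughly clinical Cmax, or from 10 microM where Cmax was unknown, alone and with AhR antagonists. Read-out: percent test/control growth of tumor spheroids containing HUVEC and MSC stromal cells.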

[1] = curve of first compound, second compound 0.1 µM
[2] = curve of first compound, second compound 0.316 µM
[3] = curve of first compound, second compound 1 µM
[4] = curve of first compound, second compound 3.16 µM
[5] = curve of first compound, second compound 10 µM

Which results are given for O=C(C=Cn1cnc(-c2cc(C(F)(F)F)cc(C(F)(F)F)c2)n1)NNc1cnccn1 + Cc1ccccc1N=Nc1ccc(NC(=O)c2ccnn2C)c(C)c1?
IC50 [1]: 97.1 nM; IC50 [2]: 55.1 nM; IC50 [3]: 51.9 nM; IC50 [4]: 43.5 nM; IC50 [5]: 61.8 nM; viability, T/C (second compound 0.1 µM, first compound 0.00949 µM): 88.7%; viability, T/C (second compound 0.1 µM, first compound 0.03 µM): 77.2%; viability, T/C (second compound 0.1 µM, first compound 0.0949 µM): 47.9%; viability, T/C (second compound 0.1 µM, first compound 0.3 µM): 30.3%; viability, T/C (second compound 0.1 µM, first compound 0.949 µM): 19.8%; viability, T/C (second compound 0.1 µM, first compound 3 µM): 13.3%; viability, T/C (second compound 0.316 µM, first compound 0.00949 µM): 74.7%; viability, T/C (second compound 0.316 µM, first compound 0.03 µM): 62.4%; viability, T/C (second compound 0.316 µM, first compound 0.0949 µM): 39.1%; viability, T/C (second compound 0.316 µM, first compound 0.3 µM): 21.9%; viability, T/C (second compound 0.316 µM, first compound 0.949 µM): 19.1%; viability, T/C (second compound 0.316 µM, first compound 3 µM): 16.2%; viability, T/C (second compound 1 µM, first compound 0.00949 µM): 56.9%; viability, T/C (second compound 1 µM, first compound 0.03 µM): 75.9%; viability, T/C (second compound 1 µM, first compound 0.0949 µM): 31.9%; viability, T/C (second compound 1 µM, first compound 0.3 µM): 17.9%; viability, T/C (second compound 1 µM, first compound 0.949 µM): 17.6%; viability, T/C (second compound 1 µM, first compound 3 µM): 20.2%; viability, T/C (second compound 3.16 µM, first compound 0.00949 µM): 70.5%; viability, T/C (second compound 3.16 µM, first compound 0.03 µM): 62%; viability, T/C (second compound 3.16 µM, first compound 0.0949 µM): 24.6%; viability, T/C (second compound 3.16 µM, first compound 0.3 µM): 29.8%; viability, T/C (second compound 3.16 µM, first compound 0.949 µM): 21.4%; viability, T/C (second compound 3.16 µM, first compound 3 µM): 19.4%; viability, T/C (second compound 10 µM, first compound 0.00949 µM): 73.8%; viability, T/C (second compound 10 µM, first compound 0.03 µM): 68.4%; viability, T/C (second compound 10 µM, first compound 0.0949 µM): 37.8%; viability, T/C (second compound 10 µM, first compound 0.3 µM): 29.6%; viability, T/C (second compound 10 µM, first compound 0.949 µM): 20.3%; viability, T/C (second compound 10 µM, first compound 3 µM): 18.8%

Which viability, T/C (compound 0.00949 µM) does the source give for CCN(c1cc(-c2ccc(CN3CCOCC3)cc2)cc(C(=O)NCc2c(C)cc(C)[nH]c2=O)c1C)C1CCOCC1 here?
Its viability, T/C is 105% and 107% and 106%.

And the viability, T/C (compound 0.03 µM)?
Its viability, T/C is 106% (2×) and 107%.

And the viability, T/C (compound 0.0949 µM)?
The viability, T/C was 107% and 109% and 106%.

What about the viability, T/C (compound 0.3 µM) of the same compound?
Its viability, T/C is 102% (2×) and 97.8%.

What about the viability, T/C (compound 0.949 µM) of the same compound?
The viability, T/C was 101% and 104% and 108%.

And the viability, T/C (compound 3 µM)?
The viability, T/C was 103% and 104% and 110%.

And the IC50 (curve of compound)?
Its IC50 is > 3000 nM.

How did the viability, T/C (compound 0.0316 µM) turn out when COc1cccc2c1C(=O)c1c(O)c3c(c(O)c1C2=O)CC(O)(C(=O)CO)CC3OC1CC(N)C(O)C(C)O1 (stereo not drawn) was run?
Its viability, T/C is 67.3% and 67.5% and 58.1%.

And the viability, T/C (compound 0.1 µM)?
Its viability, T/C is 70.1% and 60.3% and 55.9%.

And the viability, T/C (compound 0.316 µM)?
The viability, T/C was 56.7% and 50.1% and 38.2%.

What about the viability, T/C (compound 1 µM) of the same compound?
The viability, T/C was 23.9% and 24.6% and 18.1%.

And the viability, T/C (compound 3.16 µM)?
Its viability, T/C is 1.61% and 1.62% and 1.55%.

What about the viability, T/C (compound 10 µM) of the same compound?
Its viability, T/C is 0.78% and 0.83% and 0.85%.

And the IC50 (curve of compound)?
Its IC50 is 409 nM and 319 nM and 140 nM.

With COc1cc(Nc2ncc3c(n2)-c2ccc(Cl)cc2C(c2c(F)cccc2OC)=NC3)ccc1C(=O)O as the compound, how does the viability, T/C (compound 0.0316 µM) read?
Its viability, T/C is 80.4% and 74.9% and 66.8%.

And the viability, T/C (compound 0.1 µM)?
The viability, T/C was 75.4% and 73.6% and 76.6%.

And the viability, T/C (compound 0.316 µM)?
Its viability, T/C is 72.2% and 71.5% and 58.7%.

What about the viability, T/C (compound 1 µM) of the same compound?
Its viability, T/C is 55.6% and 60.1% and 52.7%.

And the viability, T/C (compound 3.16 µM)?
The viability, T/C was 50% and 51.6% and 46%.

What about the viability, T/C (compound 10 µM) of the same compound?
Its viability, T/C is 38.7% and 36% and 35.6%.

What about the IC50 (curve of compound) of the same compound?
Its IC50 is 2480 nM and 3420 nM and 1500 nM.

What does the source list for O=C(C=Cn1cnc(-c2cc(C(F)(F)F)cc(C(F)(F)F)c2)n1)NNc1cnccn1?
viability, T/C (compound 0.00949 µM): 99.2% and 101% and 90.7%; viability, T/C (compound 0.03 µM): 94.7% and 85.9% and 72.4%; viability, T/C (compound 0.0949 µM): 49.8% and 49% and 42.5%; viability, T/C (compound 0.3 µM): 34.6% and 34.1% and 25.4%; viability, T/C (compound 0.949 µM): 26.4% and 25% and 20.6%; viability, T/C (compound 3 µM): 23.9% and 17% and 14.4%; IC50 (curve of compound): 99.9 nM and 111 nM and 72.8 nM

How did the IC50 [1] turn out when COc1ccc([C@@H](O)c2cc(-c3ncnc4cc(N5CCOCC5)ccc34)c(F)cc2Cl)nn1 + Cc1ccccc1N=Nc1ccc(NC(=O)c2ccnn2C)c(C)c1 was run?
Its IC50 is 252 nM.

What about the IC50 [2] of the same compound?
The IC50 was 562 nM.

And the IC50 [3]?
The IC50 was 650 nM.

And the IC50 [4]?
The IC50 was 666 nM.

What about the IC50 [5] of the same compound?
Its IC50 is 630 nM.

And the viability, T/C (second compound 0.1 µM, first compound 0.0316 µM)?
Its viability, T/C is 85.8%.

And the viability, T/C (second compound 0.1 µM, first compound 0.1 µM)?
The viability, T/C was 58%.

What about the viability, T/C (second compound 0.1 µM, first compound 0.316 µM) of the same compound?
The viability, T/C was 40.8%.

And the viability, T/C (second compound 0.1 µM, first compound 1 µM)?
Its viability, T/C is 42.9%.

What about the viability, T/C (second compound 0.1 µM, first compound 3.16 µM) of the same compound?
Its viability, T/C is 18.1%.

What about the viability, T/C (second compound 0.1 µM, first compound 10 µM) of the same compound?
Its viability, T/C is 9.01%.

And the viability, T/C (second compound 0.316 µM, first compound 0.0316 µM)?
Its viability, T/C is 71.1%.

And the viability, T/C (second compound 0.316 µM, first compound 0.1 µM)?
Its viability, T/C is 90.5%.

And the viability, T/C (second compound 0.316 µM, first compound 0.316 µM)?
The viability, T/C was 54.8%.

And the viability, T/C (second compound 0.316 µM, first compound 1 µM)?
Its viability, T/C is 41.5%.

What about the viability, T/C (second compound 0.316 µM, first compound 3.16 µM) of the same compound?
The viability, T/C was 11.4%.

And the viability, T/C (second compound 0.316 µM, first compound 10 µM)?
Its viability, T/C is 9.4%.

And the viability, T/C (second compound 1 µM, first compound 0.0316 µM)?
The viability, T/C was 85.7%.

What about the viability, T/C (second compound 1 µM, first compound 0.1 µM) of the same compound?
Its viability, T/C is 84%.

And the viability, T/C (second compound 1 µM, first compound 0.316 µM)?
The viability, T/C was 81.2%.

What about the viability, T/C (second compound 1 µM, first compound 1 µM) of the same compound?
The viability, T/C was 31.4%.

What about the viability, T/C (second compound 1 µM, first compound 3.16 µM) of the same compound?
The viability, T/C was 10.2%.

And the viability, T/C (second compound 1 µM, first compound 10 µM)?
The viability, T/C was 6.98%.

And the viability, T/C (second compound 3.16 µM, first compound 0.0316 µM)?
Its viability, T/C is 91.9%.

What about the viability, T/C (second compound 3.16 µM, first compound 0.1 µM) of the same compound?
The viability, T/C was 92.9%.

And the viability, T/C (second compound 3.16 µM, first compound 0.316 µM)?
The viability, T/C was 71.1%.

And the viability, T/C (second compound 3.16 µM, first compound 1 µM)?
Its viability, T/C is 38.5%.

And the viability, T/C (second compound 3.16 µM, first compound 3.16 µM)?
Its viability, T/C is 12.6%.

What about the viability, T/C (second compound 3.16 µM, first compound 10 µM) of the same compound?
The viability, T/C was 6.52%.

What about the viability, T/C (second compound 10 µM, first compound 0.0316 µM) of the same compound?
Its viability, T/C is 83.4%.

What about the viability, T/C (second compound 10 µM, first compound 0.1 µM) of the same compound?
Its viability, T/C is 83.2%.

And the viability, T/C (second compound 10 µM, first compound 0.316 µM)?
Its viability, T/C is 67.2%.

And the viability, T/C (second compound 10 µM, first compound 1 µM)?
The viability, T/C was 37.5%.

And the viability, T/C (second compound 10 µM, first compound 3.16 µM)?
Its viability, T/C is 17.5%.

And the viability, T/C (second compound 10 µM, first compound 10 µM)?
Its viability, T/C is 7.07%.
